{"source": "patent US5783402A", "about": "“Method of identifying ligands and anatgonists of G-protein coupled receptor” (The United States of America as represented by the …, priority 1996, dated 1998)", "key": {"[1]": {"test_system": "dopamine D2L receptor", "settings": "10 μM agonist, 0.5 μM forskolin, IBMX, 6 hours", "description": "Data are mean±S.D. from one representative experiment. […] Data are mean±S.D. from one representative experiment. […] Data are mean±S.D. from one representative experiment.\nTransfection of cells. Cells were transfected by the calcium phosphate transfection protocol of Chen and Okayama. For each plasmid DNA preparation, the amount of DNA required for formation of an optimum calcium phosphate-DNA precipitate varies; thus, a dose response study is desirable. […]\nβ-Galactosidase microassay. β-galactosidase activity was measured with a microplate reader (Molecular Devices, Palo Alto). […]\nAll the steps in the microassay were carried out at room temperature. […] After an additional 10 minutes, 24 μl of ONPG (4 mg/ml in assay buffer; prepared daily) was added, and the optical density per well at 405 nm was determined with a plate reader. Readings were taken through 1.5 OD at 405 nm, within the linear portion of the color development. The initial rates, expressed as mOD/minute, are linearly related to β-galactosidase enzyme concentration over an enzyme concentration range of 0.1 to 100 mU (one unit hydrolyzes one micromole of ONPG per minute at 25 degrees, pH 7.5). […]"}, "[2]": {"test_system": "LVIP2.OZc cells", "experiment": "β-galactosidase (ONPG) induction in untransfected LVIP2.OZc cells by forskolin", "type": "cell-based, mouse", "settings": "8 hours", "experimental": "(§1) FIG. 1. Detection of β-galactosidase of color development of o-nitrophenol. LVIP2.OZc cells were exposed for 8 hours to control medium (containing 0.5 mM IBMX) (.quadrature.), or control medium containing 0.5 μM forskolin (.cndot.), or control medium containing 1 μM (.box-solid.) or 10 NECA (.tangle-solidup.). After cell lysis and addition of the substrate ONPG, enzyme activity was measured as optical density at 405 nm at various time intervals. Data are mean±S.D. taken from one experiment that is representative of several.\n(§2) FIG. 2. Induction of β-galactosidase as a response to length of ligand exposure. LVIP2.OZc cells were incubated for 1, 2, 4, 6, 8, 12, 15 and 18 hours in control medium (containing 0.5 mM IBMX) (.quadrature.), or control medium containing 0.5 μM forskolin (.cndot.), or control medium containing 1 μM NECA (.box-solid.), or control medium containing 1 μM PGE2 (.tangle-solidup.). Data are mean±S.D. from one representative experiment.\n(§3) FIG. 3. Induction of β-galactosidase as a response to different doses of ligands. LVIP2.OZc cells were treated for 8 hours with control medium (containing 0.5 mM IBMX), and 0.1 or 0.2 or 0.5 or 1 μM forskolin (.cndot.), control medium and 0.1 or 0.5 or 1 or 10 μM NECA (.box-solid.), control medium containing 0.1 or 0.5 or 1 or 10 μM PGE2 (.tangle-solidup.). Data are mean±S.D. from a representative experiment.\n(§4) Care should be taken to avoid foaming.\n(§5) Therefore, a quantitative assay was developed for the cAMP-mediated increase in β-galactosidase activity. […] The LVIP2.OZc cells were determined to contain endogenous […] -coupled receptors for PGE (prostaglandin E2) and adenosine. […] The enzyme levels generated by 1 μM NECA, 10 μM NECA, and 0.5 μM forskolin were determined to be 8, 30, and 48 -fold higher, respectively, than in the IBMX control cells. […]\n(§6) In pilot studies, cells were exposed to IBMX in the presence or absence for forskolin (0.5 μM), NECA (1 μM), or prostaglandin E2 (1 μM) for 2, 4, 6, 8, 15, or 18 hours and their β-galactosidase activities measured. […]"}, "[3]": {"test_system": "LVIP2.OZc cells", "experiment": "X-gal staining of LVIP2.OZc cells (blue positive cells) after forskolin + IBMX", "type": "cell-based, mouse", "settings": "forskolin 5 μM + IBMX 0.5 mM, 6 to 18 hours", "protocol": "Hygromycin-resistant Ltk^- clones were screened for induction of β-galactosidase after addition of forskolin (10 μM) and IBMX (0.5 μM).\nIn preliminary experiments, forskolin (5 μM) and IBMX (0.5 mM) was used to increase cyclic AMP levels. […] Next, the cells were transfected with human β2 -adrenergic receptor cDNA in the pcD expression vector. […] Ascorbic acid was added to prevent oxidation of isoproterenol."}, "[4]": {"test_system": "endogenous receptors for PGE (prostaglandin E2) in LVIP2.OZc cells", "experiment": "β-galactosidase (ONPG) induction in untransfected LVIP2.OZc cells by PGE2 (endogenous PGE receptors)", "type": "cell-based, mouse", "settings": "8 hours, IBMX", "experimental": "as §2\nFIG. 3. Induction of β-galactosidase as a response to different doses of ligands. LVIP2.OZc cells were treated for 8 hours with control medium (containing 0.5 mM IBMX), and 0.1 or 0.2 or 0.5 or 1 μM forskolin (.cndot.), control medium and 0.1 or 0.5 or 1 or 10 μM NECA (.box-solid.), control medium containing 0.1 or 0.5 or 1 or 10 μM PGE2 (.tangle-solidup.). […]\nas §5, §6"}, "[5]": {"test_system": "rat cannabinoid receptor", "experiment": "Inhibition of forskolin-mediated induction of β-galactosidase in cannabinoid receptor transfected LVIP2.OZc cells", "type": "cell-based", "settings": "1 μM CP55940, 0.5 μM forskolin, IBMX, 6 hours", "protocol": "Cells were exposed for 6 hours to medium containing 0.5 mM IBMX, 0.5 mM BSA and 0.5 μM forskolin ±1 μM CP55940.\nOne hundred microliters of medium containing IBMX/ascorbic acid or forskolin (1 μM)/IBMX/ascorbic acid were added to control wells. […] Each set of conditions was carried out in quadruplicate. After an eight hour exposure to ligand the cells were washed with 200 μl phosphate buffered saline and β-galactosidase activity was assayed.\nβ-Galactosidase microassay. β-galactosidase activity was measured with a microplate reader (Molecular Devices, Palo Alto).\nAll the steps in the microassay were carried out at room temperature. The assay buffer is composed of 100 mM sodium phosphate, 2 mM MgSO4, 0.1 mM MnCl2, pH 8.0. The adherent cells were washed with PBS, the plate drained and 25 μl/well of hypotonic lysis buffer added to each well, (dilute 1 part buffer with 9 parts water). […] After an additional 10 minutes, 24 μl of ONPG (4 mg/ml in assay buffer; prepared daily) was added, and the optical density per well at 405 nm was determined with a plate reader. Readings were taken through 1.5 OD at 405 nm, within the linear portion of the color development. The initial rates, expressed as mOD/minute, are linearly related to β-galactosidase enzyme concentration over an enzyme concentration range of 0.1 to 100 mU (one unit hydrolyzes one micromole of ONPG per minute at 25 degrees, pH 7.5)."}, "[6]": {"test_system": "endogenous receptors for adenosine in LVIP2.OZc cells", "experiment": "β-galactosidase (ONPG) induction in untransfected LVIP2.OZc cells by NECA (endogenous adenosine receptors)", "type": "cell-based, mouse", "experimental": "as §1, §2, §3, §4\nTherefore, a quantitative assay was developed for the cAMP-mediated increase in β-galactosidase activity. This assay was performed in 96 well plates after solubilization of the cells and incubation with the substrate ONPG. Thus, the change in optical density over a defined period of time was directly proportional to the level of β-galactosidase activity. The optical density increased linearly with time up to 1.5. The LVIP2.OZc cells were determined to contain endogenous […] -coupled receptors for PGE (prostaglandin E2) and adenosine. In pilot studies, untransfected cells were treated for 8 hours with IBMX in the presence or absence of NECA [5'-(N-ETHYLCARBOXAMIDO)-ADENOSINE, adenosine A2 receptor agonist], or forskolin, to increase intracellular cAMP levels (FIG. 1). […] The enzyme levels generated by 1 μM NECA, 10 μM NECA, and 0.5 μM forskolin were determined to be 8, 30, and 48 -fold higher, respectively, than in the IBMX control cells. The differences were discernible by visual examination after 3 to 6 hours.\nIn pilot studies, cells were exposed to IBMX in the presence or absence for forskolin (0.5 μM), NECA (1 μM), or prostaglandin E2 (1 μM) for 2, 4, 6, 8, 15, or 18 hours and their β-galactosidase activities measured. […] Dose-response data (FIG. 3) were obtained by treating cells with forskolin, NECA, or PGE2 for 8 hours. […]"}}}
{"compound": "NCCc1ccc(O)c(O)c1", "note": "[dopamine]", "values": [{"measurement": "inhibition of forskolin-stimulated increase of β-galactosidase activity", "setting": "[1]", "result": "Significant inhibition"}]}
{"compound": "C=C[C@@]1(C)CC(=O)[C@]2(O)[C@@]3(C)[C@@H](O)CCC(C)(C)[C@@H]3[C@H](O)[C@H](OC(C)=O)[C@@]2(C)O1", "note": "[forskolin]", "values": [{"measurement": "β-galactosidase activity versus IBMX-treated control cells (in words)", "setting": "[2]", "result": "considerably higher levels"}, {"measurement": "concentration producing maximum effect", "setting": "[2]; IBMX", "result": 0.5, "unit": "µM"}, {"measurement": "fold induction at 0.5 µM", "setting": "[2]; Mus musculus, 0.5 μM forskolin, IBMX, read-out: enzyme level relative to IBMX control cells", "result": 48}, {"measurement": "cells that developed a blue color", "setting": "[3]", "result": "More than 90%"}]}
{"compound": "CCCCC[C@H](O)/C=C/[C@H]1[C@H](O)CC(=O)[C@@H]1C/C=C\\CCCC(=O)O", "note": "[PGE2, prostaglandin E2]", "values": [{"measurement": "concentration required to achieve maximum enzyme induction", "setting": "[4]", "result": 10, "unit": "µM"}]}
{"compound": "CCCCCCC(C)(C)c1ccc([C@@H]2C[C@H](O)CC[C@H]2CCCO)c(O)c1", "note": "[CP55940]", "values": [{"measurement": "decrease of forskolin stimulated activity", "setting": "[5]", "result": 15, "unit": "%"}]}
{"compound": "CCNC(=O)[C@H]1O[C@@H](n2cnc3c(N)ncnc32)[C@H](O)[C@@H]1O", "note": "[NECA, 5'-(N-ETHYLCARBOXAMIDO)-ADENOSINE]", "values": [{"measurement": "enzyme level relative to IBMX control cells", "setting": "[6]; 1 μM NECA, 8 hours, IBMX", "result": "8 -fold"}, {"measurement": "concentration required to achieve maximum enzyme induction", "setting": "[6]; 8 hours, IBMX", "result": 10, "unit": "µM"}, {"measurement": "β-galactosidase activity versus IBMX-treated control cells (in words)", "setting": "[6]; 8 hours, IBMX", "result": "considerably higher levels"}, {"measurement": "enzyme level relative to IBMX control cells", "setting": "[6]; lvip2.ozc cells, 8 h, 10 µM", "result": "30 -fold"}]}
